Consider 42 compounds from patent publication EP0234113A1, “2,3-Dihydro-1H-phenalene-2-amino compounds as anti-psychotic drugs” (THE UPJOHN COMPANY, priority 1985, dated 1987).

Where a name gives a salt, the structure may show the parent alone.

The test deals with body temperature. Nature of the test: Hypothermia Test (effect on body temperature). Format: in vivo, CF-1 male mice. The following applies: either test: hypothermic or apomorphine antagonism. On the procedure:
The Effect on Body Temperature (Hypothermia) Test and the Antagonism of Apomorphone-Induced Case Climbing (ACC), (Apomorphine Gnawing Test) are described on page 1398 of the publication, Journal of Medicinal Chemistry, Vol. 22, No. 11, pp. 1390-1398, in an article entitled "6-Aryl-4H-s-triazolo[4,3-a][1,4]benzodiazepines....Action" by J. B. Hester, Jr., et al.
For the tests here, the Hypothermia Test procedure was run as follows:
A group of four CF-1 male mice (18-22 g each) was injected intraperitoneally with the test compound prepared in 0.25 percent w/v methylcellulose in water solution. After 45 min, abdominal temperature of each mouse was measured using a thermister probe. A control group of four mice was treated with vehicle only and the temperature of the control group was taken in a similar manner. A compound was considered to have a significant effect on body temperature if the mean temperature in the test compound treated group deviated more than 3.5°C from the mean temperature of the parallel control group. Stimulants tend to elevate temperatures; depressants tend to lower body temperature.
On to `c1cc2c3c(cccc3c1)CC(N1CCC1)C2` [(54), 1-[2,3-dihydro-IH-phenalen-2-yl]azetidine succinate salt], for which the “active in either the hypothermic or the apomorphine antogonism test” value was “active”.

As to `NC1Cc2cccc3cc(OCc4ccccc4)cc(c23)C1` (stereo not drawn) [(38), [2-amino-2,3-dihydro-lH-phenalen-5-yl]-a-benzyl ether hydrochloride], the “active in either the hypothermic or the apomorphine antogonism test” value is “active”.

Consider `CCCCCCC(=O)Oc1cc2c3c(cccc3c1)CC(N(CCC)CCC)C2` (stereo not drawn) [(46), [2-(N,N-di-n-propylamino)-2,3-dihydro-1H-phenalen-5-yl]heptanoate ester hydrochloride], for which the “active in either the hypothermic or the apomorphine antogonism test” value was “active”.

As for “N,N-dimethyl-4-methoxy-1H-phenalen-2-ylamine hydrochloride, 0.25 H20 hydrate [(30)]”, the “active in either the hypothermic or the apomorphine antogonism test” value is reported as “active”.

Turning to `CCCN(CCC)C1Cc2cccc3cccc(c23)C1` [(53), N,N-di-n-propyl-2,3-dihydro-lH-phenalen-2-amine hydrochloride], the “active in either the hypothermic or the apomorphine antogonism test” value is on record as “active”.

For the compound `CCCN(CCC)C1Cc2cccc3cc(OC(=O)OCC)cc(c23)C1` (stereo not drawn) [(47), [2-(N,N-di-n-propylamino)-2,3-dihydro-lH-phenalen-5-yl]-ethyl carbonate (ester)], the “active in either the hypothermic or the apomorphine antogonism test” value is on record as “active”.

Take `CCN(CC)C1Cc2cccc3cccc(c23)C1` [(55), N,N-diethyl-2,3-dihydro-lH-phenalen-2-amine hydrochloride, 0.25 H2O hydrate]: the “active in either the hypothermic or the apomorphine antogonism test” value was “active”.

Turning to `CCCN(CCC)C1Cc2cccc3cc(O)cc(c23)C1.Cl` (racemic) [(16), (±)2-(N,N-di-n-propylamino)-2,3-dihydro-1H-phenalen-5-ol hydrochloride], the “active in either the hypothermic or the apomorphine antogonism test” value was “active”.

Regarding `CNC1Cc2cccc3c(C(C)=O)ccc(c23)C1` (stereo not drawn) [(14), N-methyl-6-acetyl-2,3-dihydro-lH-phenalen-2-amine hydrochloride], the “active in either the hypothermic or the apomorphine antogonism test” value is “active”.

For `CCCN(CCC)C1Cc2cccc3cc(O)cc(c23)C1` (racemic) [(17), (±)2-(N,N-di-n-propylamino)-2,3-dihydro-lH-phenalen-5-ol hydrobromide salt], the “active in either the hypothermic or the apomorphine antogonism test” value is listed as “active”.

On to `CCCN(CCC)C1Cc2cccc3c(Br)ccc(c23)C1` (stereo not drawn) [(4)], for which the “active in either the hypothermic or the apomorphine antogonism test” value is reported as “active”.

In the case of `Brc1ccc2c3c(cccc13)CC(N1CCCCC1)C2` (stereo not drawn) [(29), 1-[6-bromo-2,3-dihydro-1H-phenalen-2-yl]piperadine], the “active in either the hypothermic or the apomorphine antogonism test” value is given as “active”.

Consider `CCCN(CCC)C1Cc2cccc3cc(O)cc(c23)C1` (single isomer, unassigned; (+)) [(33), (+)-2-(N,N-di-n-propylamino)-2,3-dihydro-lH-phenalen-5-ol hydrobromide], for which the “active in either the hypothermic or the apomorphine antogonism test” value is “active”.

Regarding `NC1Cc2cccc3c(Br)ccc(c23)C1` (stereo not drawn) [(27), 6-bromo-2,3-dihydro-lH-phenalen-2-ylamine hydrochloride], the “active in either the hypothermic or the apomorphine antogonism test” value is “active”.

As to `CN(C)C1Cc2cccc3c(OCc4ccccc4)ccc(c23)C1` (stereo not drawn) [(22), [2-(N,N-dimethylamino)-2,3-dihydro-1H-phenalen-6-yl]benzyl ether hydrochloride], the “active in either the hypothermic or the apomorphine antogonism test” value is “active”.

Consider “6-chloro-N,N-dimethyl-2,3-dihydro-lH-phenalen-2-amine hydrochloride [(52)]”, for which the “active in either the hypothermic or the apomorphine antogonism test” value was “active”.

On to `CCCN(CCC)C1Cc2cccc3ccc(OC)c(c23)C1` (stereo not drawn) [(25), N,N-di-n-propyl-4-methoxy-2,3-dihydro-lH-phenalen-2-amine hydrochloride], for which the “active in either the hypothermic or the apomorphine antogonism test” value is listed as “active”.

Take `CNC1Cc2cccc3c(OCc4ccccc4)ccc(c23)C1` (stereo not drawn) [(21), [2-(N-methylamino)-2,3-dihydro-lH-phenalen-6-yl]benzyl ether, p-toluene sulfonate salt]: the “active in either the hypothermic or the apomorphine antogonism test” value was “active”.

With “N-methyl-6-(2-methyl-l,3-dioxan-2-yl)-2,3-dihydro-lH-phena- len-2-amine maleate salt [(6)]”, the “active in either the hypothermic or the apomorphine antogonism test” value is recorded as “active”.

As for `COc1ccc2cccc3c2c1CC(N(C)C)C3` (stereo not drawn) [(31), N,N-dimethyl-4-methoxy-2,3-dihydro-lH-phenalen-2-ylamine maleate salt], the “active in either the hypothermic or the apomorphine antogonism test” value is “active”.

On to `COc1ccc2cccc3c2c1CC(N)C3` (stereo not drawn) [(24), 4-methoxy-2,3-dihydro-lH-phenalen-2-amine], for which the “active in either the hypothermic or the apomorphine antogonism test” value is “active”.

On to `CN(C)C1Cc2cccc3c(Br)ccc(c23)C1` (stereo not drawn) [(2), 6-Bromo-N,N-dimethyl-2,3-dihydro-lH-phenalen-2-amine hydrochloride], for which the “active in either the hypothermic or the apomorphine antogonism test” value was “active”.

With `CN(C)C1Cc2cccc3c(C(=O)c4ccccc4)ccc(c23)C1` (stereo not drawn) [(39), [2-(N,N-dimethylamina-2,3-dihydro-1H-phenalen-6-yl]phenone maleate salt, hydrochloride], the “active in either the hypothermic or the apomorphine antogonism test” value was “active”.

Regarding `Brc1ccc2c3c(cccc13)CC(N1CCC1)C2` (stereo not drawn) [(12), 1-[6-bromo-2,3-dihydro-1H-phenalen-2-yl]azetidine], the “active in either the hypothermic or the apomorphine antogonism test” value was “active”.

“N-methyl-6-(2-methyl-l,3-dioxan-2-yl)-2,3-dihydro-lH-phena- len-2-amine [(5)]”: the “active in either the hypothermic or the apomorphine antogonism test” value was “active”.

Regarding `COc1ccc2cccc3c2c1CC(N(C)C)C3` (stereo not drawn) [(35), N,N-dimethyl-4-methoxy-2 ,3-dihydro-lH-phenalen-2-ylamine hydrochloride], the “active in either the hypothermic or the apomorphine antogonism test” value is “active”.

For `CCNC1Cc2cccc3cccc(c23)C1` [(57), N-ethyl-2,3-dihydro-lH-phenalen-2-amine hydrochloride], the “active in either the hypothermic or the apomorphine antogonism test” value is reported as “active”.

Take `CCCN(CCC)C1Cc2cccc3c(O)ccc(c23)C1` (stereo not drawn) [(9), 2-(N,N-di-n-propylamino)-2,3-dihydro-lH-phenalen-6-ol hydrochloride]: the “active in either the hypothermic or the apomorphine antogonism test” value is listed as “active”.

On to `CNC1Cc2cccc3c(C(=O)c4ccccc4)ccc(c23)C1` (stereo not drawn) [(20), [2-(N-methylamino)-2,3-dihydro-lH-phenalen-6-yl]phenone methanesulfonate salt], for which the “active in either the hypothermic or the apomorphine antogonism test” value is given as “active”.

For the compound “6-chloro-N,N-di-n-propyl-2,3-dihydro-lH-phenalen-2-ylamine hydrochloride [(51)]”, the “active in either the hypothermic or the apomorphine antogonism test” value is reported as “active”.

Consider `Cl.NC1Cc2cccc3cc(Cl)cc(c23)C1` (stereo not drawn) [(50), 5-chloro-2,3-dihydro-1H-phenalen-2-ylamine hydrochloride], for which the “active in either the hypothermic or the apomorphine antogonism test” value is “active”.

Regarding `CCCN(CCC)C1Cc2cccc3cc(OCc4ccccc4)cc(c23)C1` (stereo not drawn) [(18), [2-(N,N-di-n-propylamino)-2,3-dihydro-lH-phenalen-5-yl]-a-benzyl ether], the “active in either the hypothermic or the apomorphine antogonism test” value is recorded as “active”.

As for `CN(C)C1Cc2cccc3cc(O)cc(c23)C1` (stereo not drawn) [(23), 2-(N,N-dimethylamino)-2,3-dihydro-lH-phenalen-5-ol], the “active in either the hypothermic or the apomorphine antogonism test” value is recorded as “active”.

On to `CN(C)C1Cc2cccc3c(O)ccc(c23)C1` (stereo not drawn) [(3), 2-(N,N-dimethylamino-2,3-dihydro-lH-phenalen-6-ol hydrochloride], for which the “active in either the hypothermic or the apomorphine antogonism test” value is reported as “active”.

Take `CCCN(CCC)C1Cc2cccc3ccc(O)c(c23)C1` (stereo not drawn) [(28), 2-(N,N-di-n-propylamino)-2,3-dihydro-1H-phenalen-4-ol hydrobromide]: the “active in either the hypothermic or the apomorphine antogonism test” value is “active”.

`CCCN(CCC)C1Cc2cccc3cc(O)cc(c23)C1` (single isomer, unassigned; (-)) [(34), (-)-2-(N,N-di-n-propylamino)-2,3-dihydro-lH-phenalen-5-ol hydrobromide]: the “active in either the hypothermic or the apomorphine antogonism test” value is given as “active”.

Regarding `CCCNC1Cc2cccc3cccc(c23)C1` [(56), N-n-propyl-2,3-dihydro-lH-phenalen-2-amine hydrochloride], the “active in either the hypothermic or the apomorphine antogonism test” value is reported as “active”.

On to `CN(C)C1Cc2cccc3ccc(O)c(c23)C1` (stereo not drawn) [(36), 2-(N,N-dimethylamino)-2,3-dihydro-lH-phenalen-4-ol hydrobromide], for which the “active in either the hypothermic or the apomorphine antogonism test” value is recorded as “active”.

Consider `CN(C)C1Cc2cccc3c(C(=O)c4ccccc4)ccc(c23)C1` (stereo not drawn) [(19), [2-(N,N-dimethylamino)-2,3-dihydro-1H-phenalen-6-yl]phenone maleate salt], for which the “active in either the hypothermic or the apomorphine antogonism test” value is “active”.

For “5-[2-(N,N-dimethylamino)-2,3-dihydro-1H-phenalen-2-yl]azetidine hydrochloride [(13)]”, the “active in either the hypothermic or the apomorphine antogonism test” value is reported as “active”.

As for `CN(C)C1(N2CCC2)Cc2cccc3cccc(c23)C1` [(11), 1-[2-(N,N-dimethylamino)-2,3-dihydro-1H-phenalen-2-yl]azetidine], the “active in either the hypothermic or the apomorphine antogonism test” value is given as “active”.

Turning to `Brc1ccc2c3c(cccc13)CC(N1CCCC1)C2` (stereo not drawn) [(26), 1-[6-bromo-2,3-dihydro-lH-phenalen-2-yl]pyrrolidine], the “active in either the hypothermic or the apomorphine antogonism test” value is given as “active”.
